The source of these data is ChEMBL document CHEMBL1201862, “PubChem BioAssay data set” (2004).

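How tested: cells in 96-well plates exposed to compound for 48 hours at five concentrations. GI50 marks 50% less growth.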 The source made the active and inactive calls. Rule as the data show it: active = GI50 up to about 1.1 µM and inactive = higher.

Some test systems named below: CCRF-CEM; DMS-114; HCT-116; M14; M19-MEL; Malme-3M; SF-268; SF-295; SF-539; SK-MEL-5; TK-10; UACC-257; UACC-62; UO-31; K562; OVCAR-5; DU-145; Hs-578T; MDA-MB-231; MDA-MB-435.
Common to all, as to assay: inhibition of tumour cell growth, NCI panel, 48 h

For the compound `COC(=O)C(=O)C(C(=O)C(=O)Nc1cc([N+](=O)[O-])ccc1C#N)c1nc2ccccc2nc1O` (stereo not drawn), the GI50 in the assay on CCRF-CEM, with DMS-114, in the assay on HCT-116, in the assay with M14, in the assay with M19-MEL and in the assay on Malme-3M was > 100 µM (inactive) throughout. In addition, the GI50 in the assay with SF-268, in the assay with SF-295, in the assay on SF-539, with SK-MEL-5, in the assay with TK-10 and in the assay on UACC-257 was > 100 µM (inactive) each time. The GI50 in the assay with UACC-62 is > 100 µM (inactive); with UO-31, 99.3 µM (inactive).
For the compound `Cc1ccc(/C=C2\CCCCC2=O)cc1`, the GI50 in the assay on CCRF-CEM was 28.1 µM (inactive); in the assay on DMS-114, 43.6 µM (inactive); in the assay with HCT-116, 43.4 µM (inactive); with K562 it was 25.7 µM (inactive); with M14, 49.9 µM (inactive); in the assay on M19-MEL, > 100 µM (inactive). Besides, the GI50 in the assay on SF-268 was > 100 µM (inactive); in the assay with SF-295, > 100 µM (inactive); in the assay on SF-539, > 100 µM (inactive); in the assay with SK-MEL-5, 91.6 µM (inactive); in the assay with TK-10, > 100 µM (inactive); with UACC-62, > 100 µM (inactive). Further, in the assay on UO-31, the GI50 was 78.9 µM (inactive).
`CC(CCc1ccc2c(c1)c(N)c1ccc(N)cc1[n+]2[O-])CC(C)(C)C` (stereo not drawn): the GI50 was 0.542 µM (active) in the assay with CCRF-CEM; 1.93 µM (inactive) in the assay on HCT-116; 0.621 µM (active) with K562; 1.75 µM (inactive) in the assay with M14; 1.44 µM (inactive) in the assay with M19-MEL; 1.87 µM (inactive) with Malme-3M. Also, the GI50 with OVCAR-5 is 1.48 µM (inactive); in the assay with SF-268, 2.2 µM (inactive); with SF-295, 1.76 µM (inactive); in the assay with SF-539 it was 1.93 µM (inactive); with SK-MEL-5, 1.65 µM (inactive); with TK-10, 1.83 µM (inactive). Besides, the figures for the GI50 in the assay on UACC-257, with UACC-62 and in the assay on UO-31 were 1.99 µM (inactive), 1.45 µM (inactive) and 8.95 µM (inactive), respectively.
In the case of `O=c1cc(CO)oc2c3c(cc(O)c12)OCC(COC1OC(CO)C(O)C(O)C1O)=CC3` (stereo not drawn), the GI50 in the assay with CCRF-CEM, in the assay on DMS-114, in the assay with HCT-116, in the assay on K562, with M14 and in the assay with M19-MEL was > 100 µM (inactive) each time. For the same compound, the GI50 with OVCAR-5, in the assay with SF-268, in the assay with SF-295, in the assay with SF-539, in the assay with SK-MEL-5 and in the assay with TK-10 was > 100 µM (inactive) throughout. Moreover, the GI50 in the assay with UACC-257, with UACC-62 and in the assay with UO-31 was > 100 µM (inactive) throughout.
As for `CN(CC1NCCCC1O)C12CC3CC(CC(C3)C1)C2` (stereo not drawn), the GI50 with CCRF-CEM was > 100 µM (inactive); in the assay with DMS-114, > 100 µM (inactive); with K562 it was 70.8 µM (inactive); in the assay on M14, > 100 µM (inactive); with M19-MEL it was > 100 µM (inactive); in the assay with Malme-3M, > 100 µM (inactive). For the same compound, the GI50 with OVCAR-5, in the assay with SF-268, in the assay on SF-295, with SF-539, in the assay with TK-10 and in the assay with UACC-257 was > 100 µM (inactive) each time. The GI50 in the assay on UACC-62 and with UO-31 was > 100 µM (inactive) throughout.
For the compound `Clc1ccc(C(n2cc(Br)cn2)n2cc(Br)cn2)cc1`, the GI50 in the assay on CCRF-CEM was 21.3 µM (inactive); with K562, 18 µM (inactive); in the assay on M14 it was 16.8 µM (inactive); in the assay on M19-MEL, 16.9 µM (inactive); in the assay on Malme-3M it was 15.8 µM (inactive); in the assay with OVCAR-5, 16 µM (inactive). Moreover, the GI50 is 16.4 µM (inactive) in the assay with SF-268; 15 µM (inactive) in the assay on SF-295; > 10 µM (inactive) with SF-539; 14 µM (inactive) in the assay with SK-MEL-5; 17.4 µM (inactive) in the assay with TK-10; 14.7 µM (inactive) in the assay with UACC-257. In addition, the GI50 in the assay on UACC-62 was 13.4 µM (inactive); in the assay with UO-31 it was 0.267 µM (active).
As for `CCCOP1(=O)C=C(C)C(Cl)=C(C)C1` (stereo not drawn), the GI50 was 15 µM (inactive) in the assay with CCRF-CEM; 19.7 µM (inactive) in the assay with DMS-114; 18 µM (inactive) with HCT-116; 24.7 µM (inactive) with K562; 15.3 µM (inactive) with M14; 21 µM (inactive) in the assay on M19-MEL. Besides, the GI50 was 29.8 µM (inactive) in the assay with OVCAR-5; 14.6 µM (inactive) in the assay with SF-268; 25.2 µM (inactive) in the assay on SF-295; 25.7 µM (inactive) with SF-539; 18.7 µM (inactive) with SK-MEL-5; 23.1 µM (inactive) with TK-10. In addition, the GI50 with UACC-257 was 17.7 µM (inactive); in the assay with UACC-62, 15 µM (inactive); in the assay with UO-31 it was 45.3 µM (inactive).
On to `COc1cc(Cl)c2c3c(c(C(=O)c4ccccc4)oc13)CCC2`, for which the GI50 in the assay on CCRF-CEM is > 100 µM (inactive); in the assay on DMS-114, > 100 µM (inactive); in the assay with HCT-116, > 100 µM (inactive); with K562, 41.7 µM (inactive); with M14 it was > 100 µM (inactive); in the assay on M19-MEL, > 100 µM (inactive). For the same compound, the GI50 in the assay with SF-295, with SF-539, in the assay on SK-MEL-5, in the assay with TK-10, with UACC-257 and in the assay on UACC-62 was > 100 µM (inactive) in each case.
On to `Cc1c2n(c(=O)[nH]c1=O)C1OC(CO)C(N=[N+]=[N-])C1O2` (stereo not drawn), for which the GI50 with CCRF-CEM was > 100 µM (inactive); with DMS-114 it was > 100 µM (inactive); in the assay with HCT-116 it was > 100 µM (inactive); with K562, 92.5 µM (inactive); with M19-MEL, > 100 µM (inactive); with SF-268 it was > 100 µM (inactive). Besides, the GI50 in the assay with SF-295, in the assay on SF-539, in the assay on SK-MEL-5, in the assay on TK-10, in the assay with UACC-257 and in the assay on UACC-62 was > 100 µM (inactive) each time. Further, the GI50 in the assay with UO-31 was > 100 µM (inactive).
Turning to `C=C[C@]1(C)CC[C@]2(C)C(CC[C@@]3(C)C2C[C@H](O)[C@H](O)[C@@]3(C)O)C1` (stereo partly drawn), the GI50 in the assay with CCRF-CEM, with DU-145, with HCT-116, in the assay with Hs-578T, in the assay with K562 and with M14 was > 100 µM (inactive) each time. Further, the GI50 in the assay on MDA-MB-231, in the assay on MDA-MB-435, in the assay with Malme-3M, in the assay on OVCAR-5, with SF-268 and with SF-295 was > 100 µM (inactive) throughout. In addition, the GI50 in the assay on SF-539, with SK-MEL-5, in the assay with TK-10, in the assay on UACC-257, in the assay with UACC-62 and in the assay with UO-31 was > 100 µM (inactive) each time.
Consider `C[C@]12CC[C@H](O)CC1CCC[C@@H]2O` (stereo partly drawn), for which the GI50 in the assay on CCRF-CEM, in the assay with DMS-114, in the assay with HCT-116, in the assay on K562, in the assay on M14 and in the assay with Malme-3M was > 100 µM (inactive) each time. Besides, the GI50 in the assay with SF-268, with SF-295, in the assay on SF-539, in the assay with SK-MEL-5, in the assay on TK-10 and in the assay with UACC-257 was > 100 µM (inactive) throughout. The GI50 in the assay with UACC-62 and in the assay on UO-31 was > 100 µM (inactive) throughout.
In the case of `CC(C)[C@@H]1CC[C@@H](C)C[C@H]1OC(=O)/C=C1/C2C=CC(O2)C1C(=O)O[C@@H]1C[C@H](C)CC[C@H]1C(C)C` (stereo partly drawn), the GI50 was 45.5 µM (inactive) with CCRF-CEM; > 100 µM (inactive) with DU-145; > 100 µM (inactive) with HCT-116; > 100 µM (inactive) in the assay on Hs-578T; 51.4 µM (inactive) with K562; > 100 µM (inactive) in the assay with M14. Also, the GI50 was > 100 µM (inactive) in the assay on MDA-MB-231; > 100 µM (inactive) with MDA-MB-435; > 100 µM (inactive) in the assay on Malme-3M; > 100 µM (inactive) with OVCAR-5; > 100 µM (inactive) in the assay on SF-268; 65.3 µM (inactive) in the assay with SF-295. Further, the GI50 with SF-539 was > 100 µM (inactive); in the assay on SK-MEL-5, > 100 µM (inactive); in the assay with TK-10, > 100 µM (inactive); in the assay on UACC-257, 46.2 µM (inactive); in the assay with UACC-62, > 100 µM (inactive); in the assay on UO-31 it was > 100 µM (inactive).
With `COC(=O)C1=C(C(=O)OC)C2(c3ccccc3)OC1(c1ccccc1)c1cc3ccccc3cc12`, the GI50 in the assay with CCRF-CEM is 0.451 µM (active); in the assay on K562, 1.51 µM (inactive); with M14, 1.79 µM (inactive); in the assay on M19-MEL it was 1.98 µM (inactive); in the assay on Malme-3M it was 1.6 µM (inactive); in the assay with OVCAR-5, 1.91 µM (inactive). Further, the GI50 with SF-268 was 1.73 µM (inactive); with SF-295, 6.28 µM (inactive); in the assay with SF-539 it was 1.67 µM (inactive); in the assay on SK-MEL-5, 2.21 µM (inactive); with TK-10 it was 2.05 µM (inactive); in the assay with UACC-62, 1.85 µM (inactive). The GI50 in the assay with UO-31 was 1.42 µM (inactive).
